Measurements: US20260234164A1, “BIPHENYL COMPOUND AS IMMUNOMODULATOR, PREPARATION METHOD THEREFOR AND USE THEREOF” (SHENZHEN CHIPSCREEN BIOSCIENCES CO., LTD., priority 2021, published 2026)

biological target: T1, CD80/PD-L1 binding (Homo sapiens, UniProt Q9NZQ7); experiment: HTRF inhibition of CD80/PD-L1 binding in vitro; details: His-CD80 100 nM, PD-L1-Fc 2 nM, read-out: IC50 inhibiting CD80/PD-L1 binding in vitro
T1 construct: purchased Sino Biological Inc. 10084-H02H-100 (PD-L1-Fc); 10698-H08H-100 (His-CD80)
Text: In addition to PD-1, PD-L1 can also exert immunosuppressive activity by binding to CD80. Similarly, in vitro experiments of binding or binding inhibition of CD80 and PD-L1 can also be measured by homogeneous time-resolved fluorescence (HTRF). When the anti-hFc-Eu^3+ antibody and anti-His-XL665 antibody were bound to the hFC tag fused to PD-L1 and the His tag fused to CD80 respectively, and excited with a 320 nm wavelength laser, the binding of PD-L1 and CD80 enabled energy to be transferred from the Eu element to the XL665 fluorescein, which was excited to emit light. When the inhibitor of the interaction between PD-L1 and CD80 was added, the combination of the two was destroyed, so that the distance between Eu and XL665 was far away, the energy cannot be transferred, and XL665 would not be excited.
Recombinant human CD80 protein with His tag (His-CD80 protein, Cat #: 10698-H08H-100), and recombinant human PD-L1-Fc fusion protein (PD-L1-Fc fusion protein, Cat #: 10084-H02H-100) were purchased from Sino Biological Inc., anti-hFc-Eu^3+ antibody and anti-His-XL665 antibody were purchased from Cisbio Company, and other related reagents such as dilution buffer (Diluent buffer 5, Cat #: 62DL5DDC), detection buffer (PPI-Europium detection buffer, Cat #: 61DB9RDF) were purchased from Cisbio Company. Fluorescence detection instrument Tecan (Spark 10 M) was purchased from Switzerland Tecan Company.
(1) Experimental preparation: The test compound was diluted with dilution buffer into different concentration gradients (the highest final concentration in 20 μL final reaction system was 10 μM), His-CD80 protein was diluted to 800 nM (the final concentration in 20 μL final reaction system was 100 nM), and the PD-L1-Fc fusion protein was diluted to 16 nM (final concentration was 2 nM). The anti-His-XL665 antibody and anti-hFc-Eu^3+ antibody were respectively diluted 20 times and 100 times using the detection buffer according to the reagent requirements.
(2) 5 μL of test compound, 2.5 μL of Hid-CD80 protein and 2.5 μL of […] solution were mixed, and incubated at room temperature for 15 min. Then the system was added with 5 μL of anti-His-XL665 antibody and 5 μL of anti-hFc-Eu^3+ antibody, incubated for another 3 h, and then detected.
(3) When detecting the reaction, a control group was provided, including a 0% inhibition positive control without adding test compounds and a 100% inhibition negative control without adding CD-80 protein. All detections were performed with duplicates.
(4) The fluorescence signal of each well was measured using a fluorescence detector Tecan (Spark 10M) at an excitation wavelength of 320 nm, and emission wavelengths of 620 nm and 665 nm, respectively. The intensity of the mutual binding of CD80 and PD-L1 referred to the ratio of fluorescence signals Em665/Em620.
(5) The binding inhibition rate of the test compound was calculated as follows: Inhibition rate (%)=[1−(Fluorescence signal ratio of detection well-fluorescence signal ratio of 100% inhibition negative control)]/(fluorescence signal ratio of 0% inhibition positive control-fluorescence signal ratio of 100% inhibition negative control)×100%. After calculating the inhibition rate on CD80/PD-L1 binding of the test compounds with different concentration gradients, the 50% inhibitory concentration (IC50) was calculated.

T1 sequence (Q9NZQ7 19-239 limits assumed): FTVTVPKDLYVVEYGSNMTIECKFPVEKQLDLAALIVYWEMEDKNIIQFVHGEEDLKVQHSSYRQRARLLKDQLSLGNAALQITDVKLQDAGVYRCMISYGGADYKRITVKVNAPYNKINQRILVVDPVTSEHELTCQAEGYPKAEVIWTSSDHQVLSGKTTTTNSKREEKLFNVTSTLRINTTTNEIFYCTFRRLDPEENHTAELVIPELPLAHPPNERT

| IC50 [nM] | SMILES |
| --- | --- |
| 4.26 | [2H]C([2H])([2H])n1c(C(=O)Nc2cccc(-c3cccc(NC(=O)c4nc5c(n4C([2H])([2H])[2H])CCN(CCC46CCC(C(=O)O)(CC4)C6)C5)c3Cl)c2C)nc2c1CCN(CCC13CCC(COC)(CC1)C3)C2 [Compound I-10, 4-(2-(2-((2-chloro-3′-(5-(2-(4-(methoxymethyl)bicyclo[2.2.1]heptane-1-yl)ethyl)-1-(methyl-d3)-4,5,6,7-tetrahydro-1H-imidazo[4,5-c]pyridine-2-carboxamido)-2′-methyl-[1,1′-biphenyl]-3-yl)carbamoyl)-1-(methyl-d3)-1,4,6,7-tetrahydro-5H-imidazo[4,5-c]pyridin-5-yl)ethyl)bicyclo[2.2.1]heptane-1-carboxylic acid] |
| 3.21 | [2H]C([2H])([2H])OCC12CCC(CCN3CCc4c(nc(C(=O)Nc5cccc(-c6cccc(NC(=O)c7nc8c(n7C([2H])([2H])[2H])CCN(CCC79CCC(C(=O)O)(CC7)C9)C8)c6C)c5Cl)n4C([2H])([2H])[2H])C3)(CC1)C2 [Compound I-11, 4-(2-(2-((2′-chloro-3′-(5-(2-(4-((methoxy-d3)methyl)bicyclo[2.2.1]heptane-1-yl)ethyl)-1-(methyl-d3)-4,5,6,7-tetrahydro-1H-imidazo[4,5-c]pyridine-2-carboxamido)-2-methyl-[1,1′-biphenyl]-3-yl)carbamoyl)-1-(methyl-d3)-1,4,6,7-tetrahydro-5H-imidazo[4,5-c]pyridin-5-yl)ethyl)bicyclo[2.2.1]heptane-1-carboxylic acid] |
| 2.94 | [2H]C([2H])([2H])n1c(C(=O)Nc2cccc(-c3cccc(NC(=O)c4nc5c(n4C([2H])([2H])[2H])CCN(CCC46CCC(COC)(CC4)C6)C5)c3Cl)c2C)nc2c1CCN(CCC13CCC(C(=O)O)(CC1)C3)C2 [Compound I-12, 4-(2-(2-((2′-chloro-3′-(5-(2-(4-(methoxymethyl)bicyclo[2.2.1]heptane-1-yl)ethyl)-1-(methyl-d3)-4,5,6,7-tetrahydro-1H-imidazo[4,5-c]pyridine-2-carboxamido)-2-methyl-[1,1′-biphenyl]-3-yl)carbamoyl)-1-(methyl-d3)-1,4,6,7-tetrahydro-5H-imidazo[4,5-c]pyridin-5-yl)ethyl)bicyclo [2.2.1]heptane-1-carboxylic acid] |
| 1.44 | [2H]c1c([2H])c(NC(=O)c2nc3c(n2C([2H])([2H])[2H])CCN(CCC24CCC(COC([2H])([2H])[2H])(CC2)C4)C3)c(Cl)c(-c2c([2H])c([2H])c([2H])c(NC(=O)c3nc4c(n3C([2H])([2H])[2H])CCN(CCC35CCC(C(=O)O)(CC3)C5)C4)c2Cl)c1[2H] [Compound I-13, 4-(2-(2-((2,2′-dichloro-3′-(5-(2-(4-((methoxy-d3)methyl)bicyclo[2.2.1]heptane-1-yl)ethyl)-1-(methyl-d3)-4,5,6,7-tetrahydro-1H-imidazo[4,5-c]pyridine-2-carboxamido)-[1,1′-biphenyl]-3-yl-4,4′, 5,5′,6,6′-d6)carbamoyl)-1-(methyl-d3)-1,4,6,7-tetrahydro-5H-imidazo[4,5-c]pyridin-5-yl)ethyl)bicyclo[2.2.1]heptane-1-carboxylic acid] |
